# Reference: ChEMBL document CHEMBL1201862, “PubChem BioAssay data set” (2004)
#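 Step 1: Grow cells in 96-well plates. Step 2: Expose to compound for 48 hours at 5 concentrations. Step 3: Interpolate endpoints linearly; if unreached, use highest concentration. At the GI50, growth is halved.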 Activity calls are given as the source filed them. Rule as the data show it: active = GI50 up to about 1.1 µM and inactive = higher.
# What was measured:
# Assay in all cases: NCI-60 cell line screen, 48 h
# SK-MEL-28 = test system: SK-MEL-28
# Hs-578T = test system: Hs-578T
# ACHN = test system: ACHN
# SK-MEL-2 = test system: SK-MEL-2
# T47D = test system: T47D
# BT-549 = test system: BT-549
# SNB-75 = test system: SNB-75
# HL-60 = test system: HL-60
# MOLT-4 = test system: MOLT-4
# MDA-MB-435 = test system: MDA-MB-435
# UACC-257 = test system: UACC-257
# K562 = test system: K562
# SK-OV-3 = test system: SK-OV-3
# SR = test system: SR
# CCRF-CEM = test system: CCRF-CEM
# NCI-H23 = test system: NCI-H23
# RXF 393 = test system: RXF 393
# HT-29 = test system: HT-29
# IGROV-1 = test system: IGROV-1
# HCC 2998 = test system: HCC 2998
# UO-31 = test system: UO-31
# CAKI-1 = test system: CAKI-1
# SF-539 = test system: SF-539
# RPMI-8226 = test system: RPMI-8226
# COLO 205 = test system: COLO 205
# NCI/ADR-RES = test system: NCI/ADR-RES
# 786-0 = test system: 786-0
# HCT-116 = test system: HCT-116
# M14 = test system: M14
# SF-268 = test system: SF-268
# A498 = test system: A498
# OVCAR-5 = test system: OVCAR-5
# SNB-19 = test system: SNB-19
# U-251 = test system: U-251
# LOX IMVI = test system: LOX IMVI
# NCI-H522 = test system: NCI-H522
# TK-10 = test system: TK-10
# NCI-H226 = test system: NCI-H226
# PC-3 = test system: PC-3
# OVCAR-3 = test system: OVCAR-3
# SF-295 = test system: SF-295
# EKVX = test system: EKVX
# OVCAR-8 = test system: OVCAR-8
# HCT-15 = test system: HCT-15
# NCI-H460 = test system: NCI-H460
# SW-620 = test system: SW-620
# HOP-62 = test system: HOP-62
# DU-145 = test system: DU-145
# HOP-92 = test system: HOP-92
# MCF7 = test system: MCF7
# MDA-N = test system: MDA-N
# OVCAR-4 = test system: OVCAR-4
# SK-MEL-5 = test system: SK-MEL-5
# KM12 = test system: KM12
# MDA-MB-231 = test system: MDA-MB-231
# A549 = test system: A549
# SN12C = test system: SN12C
# UACC-62 = test system: UACC-62
# Malme-3M = test system: Malme-3M
smiles,measurement,setting,value
Cc1ccccc1NC(=O)NC(Oc1ccccc1)(C(F)(F)F)C(F)(F)F,GI50,SK-MEL-28,> 100 µM (inactive)
same,GI50,Hs-578T,> 100 µM (inactive)
same,GI50,ACHN,> 100 µM (inactive)
same,GI50,SK-MEL-2,> 100 µM (inactive)
same,GI50,T47D,> 100 µM (inactive)
same,GI50,BT-549,> 100 µM (inactive)
same,GI50,SNB-75,> 100 µM (inactive)
same,GI50,HL-60,> 100 µM (inactive)
same,GI50,MOLT-4,> 100 µM (inactive)
same,GI50,MDA-MB-435,> 100 µM (inactive)
same,GI50,UACC-257,> 100 µM (inactive)
same,GI50,K562,> 100 µM (inactive)
same,GI50,SK-OV-3,> 100 µM (inactive)
same,GI50,SR,> 100 µM (inactive)
same,GI50,CCRF-CEM,> 100 µM (inactive)
same,GI50,NCI-H23,> 100 µM (inactive)
same,GI50,RXF 393,73.1 µM (inactive)
same,GI50,HT-29,> 100 µM (inactive)
same,GI50,IGROV-1,> 100 µM (inactive)
same,GI50,HCC 2998,> 100 µM (inactive)
same,GI50,UO-31,> 100 µM (inactive)
same,GI50,CAKI-1,22.4 µM (inactive)
same,GI50,SF-539,> 100 µM (inactive)
same,GI50,RPMI-8226,> 100 µM (inactive)
same,GI50,COLO 205,> 100 µM (inactive)
same,GI50,NCI/ADR-RES,> 100 µM (inactive)
same,GI50,786-0,> 100 µM (inactive)
same,GI50,HCT-116,> 100 µM (inactive)
same,GI50,M14,> 100 µM (inactive)
same,GI50,SF-268,> 100 µM (inactive)
same,GI50,A498,> 100 µM (inactive)
same,GI50,OVCAR-5,> 100 µM (inactive)
same,GI50,SNB-19,> 100 µM (inactive)
same,GI50,U-251,> 100 µM (inactive)
CC1=NN(c2cccc(Cl)c2)C2(SCC(=O)N2c2nc3ccccc3s2)/C1=C\c1ccccc1O (centres undefined),GI50,LOX IMVI,30.5 µM (inactive)
same,GI50,SK-MEL-28,24.8 µM (inactive)
same,GI50,Hs-578T,27.8 µM (inactive)
same,GI50,ACHN,15.5 µM (inactive)
same,GI50,NCI-H522,19.8 µM (inactive)
same,GI50,SK-MEL-2,17.6 µM (inactive)
same,GI50,T47D,3.99 µM (inactive)
same,GI50,TK-10,42.4 µM (inactive)
same,GI50,NCI-H226,34.3 µM (inactive)
same,GI50,HL-60,14.2 µM (inactive)
same,GI50,MOLT-4,11.9 µM (inactive)
same,GI50,PC-3,19.8 µM (inactive)
same,GI50,MDA-MB-435,21.3 µM (inactive)
same,GI50,UACC-257,31.4 µM (inactive)
same,GI50,K562,5.65 µM (inactive)
same,GI50,OVCAR-3,15.8 µM (inactive)
same,GI50,SF-295,25.8 µM (inactive)
same,GI50,SK-OV-3,18.4 µM (inactive)
same,GI50,SR,13.7 µM (inactive)
same,GI50,EKVX,30.5 µM (inactive)
same,GI50,CCRF-CEM,15.1 µM (inactive)
same,GI50,OVCAR-8,18.1 µM (inactive)
same,GI50,NCI-H23,16 µM (inactive)
same,GI50,HCT-15,14.6 µM
same,GI50,RXF 393,17 µM (inactive)
same,GI50,HT-29,23.4 µM (inactive)
same,GI50,NCI-H460,31.8 µM (inactive)
same,GI50,IGROV-1,17.4 µM (inactive)
same,GI50,HCC 2998,21.6 µM (inactive)
same,GI50,SW-620,16.7 µM (inactive)
same,GI50,HOP-62,20.9 µM (inactive)
same,GI50,UO-31,15.7 µM (inactive)
same,GI50,DU-145,18.3 µM (inactive)
same,GI50,CAKI-1,21.4 µM (inactive)
same,GI50,SF-539,33.5 µM (inactive)
same,GI50,HOP-92,10.1 µM (inactive)
same,GI50,RPMI-8226,11.9 µM (inactive)
same,GI50,NCI/ADR-RES,19.7 µM (inactive)
same,GI50,MCF7,20 µM (inactive)
same,GI50,786-0,16.3 µM (inactive)
same,GI50,MDA-N,22.3 µM (inactive)
same,GI50,HCT-116,14.9 µM (inactive)
same,GI50,M14,21.7 µM (inactive)
same,GI50,OVCAR-4,21.4 µM (inactive)
same,GI50,SK-MEL-5,13.4 µM (inactive)
same,GI50,KM12,19.7 µM (inactive)
same,GI50,SF-268,22.6 µM (inactive)
same,GI50,MDA-MB-231,20.2 µM (inactive)
same,GI50,A498,11 µM (inactive)
same,GI50,OVCAR-5,25.4 µM (inactive)
same,GI50,U-251,19.2 µM (inactive)
CC1(C)N=c2[nH]cnc2=C(C(N)=O)N1,GI50,LOX IMVI,> 100 µM (inactive)
same,GI50,SK-MEL-28,> 100 µM (inactive)
same,GI50,Hs-578T,> 100 µM (inactive)
same,GI50,ACHN,> 100 µM (inactive)
same,GI50,NCI-H522,> 100 µM (inactive)
same,GI50,SK-MEL-2,> 100 µM (inactive)
same,GI50,T47D,> 100 µM (inactive)
same,GI50,SNB-75,> 100 µM (inactive)
same,GI50,TK-10,> 100 µM (inactive)
same,GI50,NCI-H226,> 100 µM (inactive)
same,GI50,HL-60,> 100 µM (inactive)
same,GI50,PC-3,> 100 µM (inactive)
same,GI50,MDA-MB-435,> 100 µM (inactive)
same,GI50,UACC-257,> 100 µM (inactive)
same,GI50,A549,> 100 µM (inactive)
same,GI50,SN12C,> 100 µM (inactive)
same,GI50,K562,> 100 µM (inactive)
same,GI50,OVCAR-3,> 100 µM (inactive)
same,GI50,SF-295,> 100 µM (inactive)
same,GI50,SK-OV-3,> 100 µM (inactive)
same,GI50,SR,> 100 µM (inactive)
same,GI50,EKVX,> 100 µM (inactive)
same,GI50,CCRF-CEM,> 100 µM (inactive)
same,GI50,OVCAR-8,> 100 µM (inactive)
same,GI50,NCI-H23,> 100 µM (inactive)
same,GI50,HCT-15,> 100 µM
same,GI50,RXF 393,> 100 µM (inactive)
same,GI50,HT-29,> 100 µM (inactive)
same,GI50,NCI-H460,> 100 µM (inactive)
same,GI50,IGROV-1,> 100 µM (inactive)
same,GI50,HCC 2998,> 100 µM (inactive)
same,GI50,UACC-62,> 100 µM (inactive)
same,GI50,SW-620,> 100 µM (inactive)
same,GI50,HOP-62,> 100 µM (inactive)
same,GI50,DU-145,> 100 µM (inactive)
same,GI50,CAKI-1,> 100 µM (inactive)
same,GI50,SF-539,> 100 µM (inactive)
same,GI50,HOP-92,> 100 µM (inactive)
same,GI50,RPMI-8226,> 100 µM (inactive)
same,GI50,COLO 205,> 100 µM (inactive)
same,GI50,NCI/ADR-RES,> 100 µM (inactive)
same,GI50,MCF7,> 100 µM (inactive)
same,GI50,786-0,> 100 µM (inactive)
same,GI50,MDA-N,> 100 µM (inactive)
same,GI50,HCT-116,> 100 µM (inactive)
same,GI50,M14,> 100 µM (inactive)
same,GI50,OVCAR-4,> 100 µM (inactive)
same,GI50,SK-MEL-5,> 100 µM (inactive)
same,GI50,KM12,> 100 µM (inactive)
same,GI50,SF-268,> 100 µM (inactive)
same,GI50,MDA-MB-231,> 100 µM (inactive)
same,GI50,A498,> 100 µM (inactive)
same,GI50,OVCAR-5,> 100 µM (inactive)
same,GI50,SNB-19,> 100 µM (inactive)
same,GI50,U-251,> 100 µM (inactive)
same,GI50,Malme-3M,> 100 µM (inactive)
Clc1cc(C(c2cc(Cl)sc2Cl)c2cc(Cl)sc2Cl)c(Cl)s1,GI50,LOX IMVI,> 100 µM (inactive)
same,GI50,SK-MEL-28,> 100 µM (inactive)
same,GI50,Hs-578T,> 100 µM (inactive)
same,GI50,ACHN,> 100 µM (inactive)
same,GI50,NCI-H522,> 100 µM (inactive)
same,GI50,SK-MEL-2,> 100 µM (inactive)
same,GI50,T47D,> 100 µM (inactive)
same,GI50,SNB-75,> 100 µM (inactive)
same,GI50,TK-10,> 100 µM (inactive)
same,GI50,NCI-H226,> 100 µM (inactive)
same,GI50,HL-60,> 100 µM (inactive)
same,GI50,MOLT-4,> 81.7 µM (inactive)
same,GI50,PC-3,> 100 µM (inactive)
same,GI50,MDA-MB-435,> 100 µM (inactive)
same,GI50,UACC-257,> 100 µM (inactive)
same,GI50,A549,> 100 µM (inactive)
same,GI50,SN12C,> 100 µM (inactive)
same,GI50,K562,> 100 µM (inactive)
same,GI50,OVCAR-3,> 100 µM (inactive)
same,GI50,SF-295,> 100 µM (inactive)
same,GI50,SK-OV-3,> 100 µM (inactive)
same,GI50,SR,> 100 µM (inactive)
same,GI50,EKVX,> 100 µM (inactive)
same,GI50,CCRF-CEM,> 100 µM (inactive)
same,GI50,OVCAR-8,> 100 µM (inactive)
same,GI50,NCI-H23,> 100 µM (inactive)
same,GI50,HCT-15,> 100 µM
same,GI50,RXF 393,> 100 µM (inactive)
same,GI50,HT-29,> 100 µM (inactive)
same,GI50,NCI-H460,> 100 µM (inactive)
same,GI50,IGROV-1,> 100 µM (inactive)
same,GI50,HCC 2998,> 100 µM (inactive)
same,GI50,UACC-62,> 100 µM (inactive)
same,GI50,SW-620,> 100 µM (inactive)
same,GI50,HOP-62,> 100 µM (inactive)
same,GI50,UO-31,> 100 µM (inactive)
same,GI50,DU-145,> 100 µM (inactive)
same,GI50,CAKI-1,> 100 µM (inactive)
same,GI50,SF-539,> 100 µM (inactive)
same,GI50,HOP-92,> 100 µM (inactive)
same,GI50,RPMI-8226,> 100 µM (inactive)
same,GI50,COLO 205,> 100 µM (inactive)
same,GI50,NCI/ADR-RES,> 100 µM (inactive)
same,GI50,MCF7,> 100 µM (inactive)
same,GI50,786-0,> 100 µM (inactive)
same,GI50,MDA-N,> 100 µM (inactive)
same,GI50,HCT-116,> 82.2 µM (inactive)
same,GI50,M14,> 100 µM (inactive)
same,GI50,OVCAR-4,> 100 µM (inactive)
same,GI50,SK-MEL-5,> 100 µM (inactive)
same,GI50,KM12,> 100 µM (inactive)
same,GI50,SF-268,> 100 µM (inactive)
same,GI50,MDA-MB-231,> 100 µM (inactive)
same,GI50,A498,> 100 µM (inactive)
same,GI50,OVCAR-5,> 100 µM (inactive)
same,GI50,SNB-19,> 100 µM (inactive)
same,GI50,U-251,> 100 µM (inactive)
same,GI50,Malme-3M,74.1 µM (inactive)
